Columns and labels:
Type in all cases: biochemical
CDK2-cycline E = CDK2-cycline E (Homo sapiens, UniProt P24941); experiment: Kinase assay (radioactive phosphate incorporation), CDK2-cyclin E; settings: read-out: Kinase Inhibition pIC50 CDK2-cycline E (converted)
Experimental: (§1) Kinase assays. The compounds of the invention above were investigated for their ability to inhibit the enzymatic activity of various protein kinases (Table 2). This was achieved by measurement of incorporation of radioactive phosphate from ATP into appropriate polypeptide substrates. Recombinant protein kinases and kinase complexes were produced or obtained commercially. Assays were performed using 96-well plates and appropriate assay buffers (typically 25 mM β-glycerophosphate, 20 mM MOPS, 5 mM EGTA, 1 mM DTT, 1 mM […], pH 7.4), into which were added 2-4 μg of active enzyme with appropriate substrates. The reactions were initiated by addition of Mg/ATP mix (15 mM MgCl2+100 μM ATP with 30-50 kBq per well of [γ-^32P]-ATP) and mixtures incubated as required at 30° C. Reactions were stopped on ice, followed by filtration through p81 filterplates or GF/C filterplates (Whatman Polyfiltronics, Kent, UK). After washing 3 times with 75 mM aq orthophosphoric acid, plates were dried, scintillant added and incorporated radioactivity measured in a scintillation counter (TopCount, Packard Instruments, Pangbourne, Berks, UK). Compounds for kinase assay were made up as 10 mM stocks in DMSO and diluted into 10% DMSO in assay buffer.

CDK7/cyclin H = CDK7/cyclin H (Homo sapiens, UniProt P50613); experiment: CDK 7 assay (CTD peptide substrate); settings: read-out: Kinase Inhibition pIC50 CDK7-cyclin H (converted)
CDK7/cyclin H, sequence (P50613 whole entry): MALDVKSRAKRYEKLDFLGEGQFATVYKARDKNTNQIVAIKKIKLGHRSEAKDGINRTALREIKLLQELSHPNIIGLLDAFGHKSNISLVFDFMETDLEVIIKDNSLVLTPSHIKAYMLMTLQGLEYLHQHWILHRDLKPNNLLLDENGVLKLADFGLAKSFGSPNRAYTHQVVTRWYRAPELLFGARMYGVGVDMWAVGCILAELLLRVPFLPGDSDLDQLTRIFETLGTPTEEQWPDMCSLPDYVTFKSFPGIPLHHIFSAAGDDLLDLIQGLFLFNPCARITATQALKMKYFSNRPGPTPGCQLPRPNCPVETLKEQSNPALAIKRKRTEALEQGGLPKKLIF
CDK7/cyclin H, sequence (P51946 whole entry partner): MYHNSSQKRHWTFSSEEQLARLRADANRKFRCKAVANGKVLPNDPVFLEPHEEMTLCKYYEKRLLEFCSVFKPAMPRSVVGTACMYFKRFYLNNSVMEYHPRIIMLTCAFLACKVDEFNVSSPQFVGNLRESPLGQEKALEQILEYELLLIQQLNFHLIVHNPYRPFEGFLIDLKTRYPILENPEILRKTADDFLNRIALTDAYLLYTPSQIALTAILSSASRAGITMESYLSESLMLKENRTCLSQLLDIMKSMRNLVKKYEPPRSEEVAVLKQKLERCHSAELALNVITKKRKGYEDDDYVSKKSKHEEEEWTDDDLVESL
Experimental: as §1
(§2) CDK 7 and 9 assays. CTD peptide substrate (biotinyl-Abx-(Tyr-Ser-Pro-Thr-Ser-Pro-Ser)4-NH2; 1-2 mg/mL) and recombinant human CDK7/cyclin H, CDK9/cyclin T1, or CDK9/cyclin K (0.5-2 μg) were incubated for 45 min at 30° C. in the presence of varying amounts of test compound in 20 mM MOPS pH 7.2, 25 mM β-glycerophosphate, 5 mM EGTA, 1 mM DTT, 1 mM sodium vanadate, 15 mM MgCl2, and 100 μM ATP (containing a trace amount of ^32PγATP) in a total volume of 25 μL in a 96-well microtiter plate. The reaction was stopped by placing the plate on ice for 2 min. Avidin (50 μg) was added to each well, and the plate was incubated at room temp for 30 min. The samples were transferred to a 96-well P81 filter plate, and washed (4×200 μL per well) with 75 mM phosphoric acid. Microscint 40 scintillation liquid (50 μL) was added to each well, and the amount of ^32P incorporation for each sample was measured using a Packard Topcount microplate scintillation counter.

[1] = target: T1, Flt3 (FMS-like tyrosine kinase-3) (Homo sapiens, UniProt P36888); experiment: Kinase assay (radioactive phosphate incorporation), Flt3; settings: pIC50 is -log(IC50, M), read-out: Kinase Inhibition pIC50 Flt3 (converted)
T1 sequence (P36888 27-993): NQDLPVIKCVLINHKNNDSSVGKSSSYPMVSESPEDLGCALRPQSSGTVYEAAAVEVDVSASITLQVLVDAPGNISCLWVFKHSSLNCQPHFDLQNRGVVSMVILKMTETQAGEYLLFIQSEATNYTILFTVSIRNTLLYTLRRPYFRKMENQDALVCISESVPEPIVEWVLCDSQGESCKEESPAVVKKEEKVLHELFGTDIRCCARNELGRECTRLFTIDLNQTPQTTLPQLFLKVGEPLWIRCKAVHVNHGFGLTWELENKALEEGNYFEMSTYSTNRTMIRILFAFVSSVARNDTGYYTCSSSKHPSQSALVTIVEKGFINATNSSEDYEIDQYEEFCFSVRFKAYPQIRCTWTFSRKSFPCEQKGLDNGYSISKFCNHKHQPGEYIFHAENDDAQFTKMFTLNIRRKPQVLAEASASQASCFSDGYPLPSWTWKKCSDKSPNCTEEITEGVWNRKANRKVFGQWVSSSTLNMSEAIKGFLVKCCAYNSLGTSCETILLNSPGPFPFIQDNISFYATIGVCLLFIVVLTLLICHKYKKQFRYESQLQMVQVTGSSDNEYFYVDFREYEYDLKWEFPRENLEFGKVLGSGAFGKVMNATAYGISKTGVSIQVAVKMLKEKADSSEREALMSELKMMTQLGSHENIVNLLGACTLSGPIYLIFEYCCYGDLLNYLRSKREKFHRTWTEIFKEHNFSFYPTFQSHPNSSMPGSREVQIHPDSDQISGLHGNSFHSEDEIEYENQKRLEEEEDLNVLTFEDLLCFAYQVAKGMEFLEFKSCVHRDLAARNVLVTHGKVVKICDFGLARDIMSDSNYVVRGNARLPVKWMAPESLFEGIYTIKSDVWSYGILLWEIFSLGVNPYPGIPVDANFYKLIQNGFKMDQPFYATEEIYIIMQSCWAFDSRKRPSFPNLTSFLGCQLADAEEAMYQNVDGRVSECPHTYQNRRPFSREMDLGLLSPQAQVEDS
Experimental: as §1

Aurora A kinase = target: T2, Aurora A kinase (Homo sapiens, UniProt O14965); experiment: Aurora-A (human) kinase assay (Kemptide substrate); settings: pIC50 is -log(IC50, M); 15 μM ATP; read-out: Kinase Inhibition pIC50 Aurora A kinase (converted)
T2 construct: purchased
T2 sequence (O14965 1-403): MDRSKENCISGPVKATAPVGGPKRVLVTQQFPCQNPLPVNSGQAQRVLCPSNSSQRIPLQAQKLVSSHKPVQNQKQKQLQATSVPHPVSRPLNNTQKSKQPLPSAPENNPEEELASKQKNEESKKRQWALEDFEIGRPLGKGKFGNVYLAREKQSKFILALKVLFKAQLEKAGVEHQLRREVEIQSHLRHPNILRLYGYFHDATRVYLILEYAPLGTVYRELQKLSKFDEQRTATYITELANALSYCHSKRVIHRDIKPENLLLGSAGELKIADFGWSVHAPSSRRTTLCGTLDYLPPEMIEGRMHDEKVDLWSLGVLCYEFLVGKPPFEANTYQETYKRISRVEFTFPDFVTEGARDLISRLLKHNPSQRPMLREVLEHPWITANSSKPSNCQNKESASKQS
Experimental: Aurora-A (human) kinase assay. This was achieved by measurement of incorporation of radioactive phosphate from ATP into Kemptide substrate (LRRASLG), upon phosphorylation by commercially obtained aurora-A kinase. Assays were performed using 96-well plates and appropriate assay buffers (8 mM MOPS, 0.2 mM EDTA, pH 7.0), into which were added 5-10 ng of active enzyme with 200 μM substrate (Kemptide). The reactions were initiated by addition of Mg/ATP mix (10 mM MgAcetate+15 μM ATP with 30-50 kBq per well of [γ-^33P]-ATP) and mixtures incubated for 40 min at room temperature. Reactions were stopped by addition of 3% phosphoric acid, followed by filtration through p81 filterplates (Whatman Polyfiltronics, Kent, UK). After washing 5 times with 75 mM aq orthophosphoric acid and once in methanol, plates were dried, scintillant added and incorporated radioactivity measured in a scintillation counter (TopCount, Packard Instruments, Pangbourne, Berks, UK). Compounds for kinase assay were made up as 10 mM stocks in DMSO and diluted into 10% DMSO in assay buffer.

CDK9/cyclin T1 = CDK9/cyclin T1 (Homo sapiens, UniProt P50750); experiment: CDK 9 assay (CTD peptide substrate); settings: read-out: Kinase Inhibition pIC50 CDK9-cyclin T1 (converted)
CDK9/cyclin T1, sequence (P50750 whole entry): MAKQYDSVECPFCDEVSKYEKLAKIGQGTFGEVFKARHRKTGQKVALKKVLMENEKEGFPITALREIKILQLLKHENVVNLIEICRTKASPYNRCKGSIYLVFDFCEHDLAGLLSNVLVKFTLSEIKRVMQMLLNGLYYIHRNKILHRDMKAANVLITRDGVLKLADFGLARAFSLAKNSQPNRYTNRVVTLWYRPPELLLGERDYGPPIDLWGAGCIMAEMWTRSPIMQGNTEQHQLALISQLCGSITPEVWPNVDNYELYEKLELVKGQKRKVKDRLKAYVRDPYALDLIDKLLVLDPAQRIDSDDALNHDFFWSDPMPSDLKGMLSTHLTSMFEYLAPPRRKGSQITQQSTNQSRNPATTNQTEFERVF
CDK9/cyclin T1, sequence (O60563 whole entry partner): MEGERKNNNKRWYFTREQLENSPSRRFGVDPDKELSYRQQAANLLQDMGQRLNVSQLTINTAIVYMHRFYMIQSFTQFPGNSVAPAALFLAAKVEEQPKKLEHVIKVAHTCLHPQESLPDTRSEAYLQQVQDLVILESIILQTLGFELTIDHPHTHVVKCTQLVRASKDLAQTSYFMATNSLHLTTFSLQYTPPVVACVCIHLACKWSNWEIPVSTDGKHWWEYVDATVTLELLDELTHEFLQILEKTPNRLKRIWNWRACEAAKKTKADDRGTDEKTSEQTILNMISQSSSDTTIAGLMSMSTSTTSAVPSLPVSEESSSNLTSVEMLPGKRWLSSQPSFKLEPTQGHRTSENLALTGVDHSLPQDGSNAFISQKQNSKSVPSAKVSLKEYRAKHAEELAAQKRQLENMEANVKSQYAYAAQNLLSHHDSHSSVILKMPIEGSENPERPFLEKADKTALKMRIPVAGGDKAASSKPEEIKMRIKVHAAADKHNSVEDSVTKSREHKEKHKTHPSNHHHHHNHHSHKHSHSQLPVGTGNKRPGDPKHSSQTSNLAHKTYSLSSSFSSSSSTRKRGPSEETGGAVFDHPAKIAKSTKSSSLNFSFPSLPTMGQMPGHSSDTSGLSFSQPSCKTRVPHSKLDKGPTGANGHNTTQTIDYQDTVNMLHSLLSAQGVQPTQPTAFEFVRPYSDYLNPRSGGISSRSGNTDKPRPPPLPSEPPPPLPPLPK
Experimental: as §1, §2

| Compound | IC50 (CDK2-cycline E) [nM] | IC50 (CDK7/cyclin H) [nM] | IC50 [1] [nM] | IC50 (Aurora A kinase) [nM] | IC50 (CDK9/cyclin T1) [nM] |
| --- | --- | --- | --- | --- | --- |
| COCCOC(=O)Cc1cccc(Nc2nccc(-c3sc(N)nc3C)n2)c1 [Compound 1, {3-[4-(2-Amino-4-methyl-thiazol-5-yl)-pyrimidin-2-ylamino]-phenyl}-acetic acid 2-methoxy-ethyl ester] | 1000 | 3160 | 126 | – | – |
| COc1cc(Nc2nccc(-c3sc(C)nc3C)n2)cc(OC)c1OC [Compound 25, [4-(2,4-Dimethyl-thiazol-5-yl)-pyrimidin-2-yl]-(3,4,5-trimethoxy-phenyl)-amine] | – | 3160 | 63.1 | 20 | 2000 |
| Cc1nc(C)c(-c2ccnc(Nc3cc(CO)cc(CO)c3)n2)s1 [Compound 47, {3-[4-(2,4-Dimethyl-thiazol-5-yl)-pyrimidin-2-ylamino]-5-hydroxymethyl-phenyl}-methanol] | – | – | 200 | – | – |
| Cc1nc(C)c(-c2ccnc(Nc3ccc(N4CC(C)OC(C)C4)cc3)n2)s1 (stereo not drawn) [Compound 121, [4-(2,6-Dimethyl-morpholin-4-yl)-phenyl]-[4-(2,4-dimethyl-thiazol-5-yl)-pyrimidin-2-yl]-amine] | 5010 | – | 398 | 39.8 | 3980 |
| Cc1nc(C)c(-c2ccnc(Nc3cccc(CN4CCOCC4)c3)n2)s1 [Compound 150, [4-(2,4-Dimethyl-thiazol-5-yl)-pyrimidin-2-yl]-(3-morpholin-4-ylmethyl-phenyl)-amine] | 1260 | – | 126 | 158 | – |
| Cc1nc(C)c(-c2ccnc(Nc3ccc(O)c(CN4CCOCC4)c3)n2)s1 [Compound 151, 4-[4-(2,4-Dimethyl-thiazol-5-yl)-pyrimidin-2-ylamino]-2-morpholin-4-ylmethyl-phenol] | 200 | – | 63.1 | 63.1 | – |
| Cc1nc(C)c(-c2ccnc(Nc3cccc(N4CCOCC4)c3)n2)s1 [Compound 152, [4-(2,4-Dimethyl-thiazol-5-yl)-pyrimidin-2-yl]-(3-morpholin-4-yl-phenyl)-amine] | 316 | – | 31.6 | 50.1 | – |
| COc1cc(Nc2nccc(-c3sc(-c4cccnc4)nc3C)n2)cc(OC)c1OC [Compound 154, [4-(4-Methyl-2-pyridin-3-yl-thiazol-5-yl)-pyrimidin-2-yl]-(3,4,5-trimethoxy-phenyl)-amine] | – | – | 100 | 79.4 | – |
| COc1cc(Nc2nccc(-c3sc(-c4cccnc4)nc3C)n2)ccc1N1CCOCC1 [Compound 156, (3-Methoxy-4-morpholin-4-yl-phenyl)-[4-(4-methyl-2-pyridin-3-yl-thiazol-5-yl)-pyrimidin-2-yl]-amine] | – | – | 100 | 100 | – |
| Cc1nc(N(C)c2cccnc2)sc1-c1ccnc(Nc2ccc(N3CCOCC3)cc2)n1 [Compound 162, {4-[4-Methyl-2-(methyl-pyridin-3-yl-amino)-thiazol-5-yl]-pyrimidin-2-yl}-(4-morpholin-4-yl-phenyl)-amine] | 3160 | – | 63.1 | 126 | 3160 |
| COc1cc(Nc2nccc(-c3sc(N)nc3C)n2)cc(OC)c1OC [Compound 168, [4-(2-Amino-4-methyl-thiazol-5-yl)-pyrimidin-2-yl]-(3,4,5-trimethoxy-phenyl)-amine] | 398 | 1260 | 5.01 | 31.6 | 316 |
| CCNc1nc(C)c(-c2ccnc(Nc3ccc(N4CC(C)OC(C)C4)cc3)n2)s1 (stereo not drawn) [Compound 169, [4-(2,6-Dimethyl-morpholin-4-yl)-phenyl]-[4-(2-ethylamino-4-methyl-thiazol-5-yl)-pyrimidin-2-yl]-amine] | 1580 | – | 39.8 | 50.1 | 3160 |
| CNc1nc(C)c(-c2ccnc(Nc3cc(OC)cc(OC)c3)n2)s1 [Compound 170, (3,5-Dimethoxy-phenyl)-[4-(4-methyl-2-methylamino-thiazol-5-yl)-pyrimidin-2-yl]-amine] | 316 | – | 10 | 63.1 | – |
| Cc1nc(C)c(-c2ccnc(Nc3ccc(CN4CCOCC4)cc3)n2)s1 [Compound 174, [4-(2,4-Dimethyl-thiazol-5-yl)-pyrimidin-2-yl]-(4-morpholin-4-ylmethyl-phenyl)-amine] | 1260 | 251 | 158 | 100 | 1000 |
| COc1cc(Nc2nccc(-c3sc(CO)nc3C)n2)ccc1N1CCCCC1 [Compound 216, {5-[2-(3-Methoxy-4-piperidin-1-yl-phenylamino)-pyrimidin-4-yl]-4-methyl-thiazol-2-yl}-methanol] | 1580 | 1580 | – | 63.1 | 631 |
| Cc1cc(Nc2nccc(-c3sc(CO)nc3C)n2)ccc1N1CCOCC1 [Compound 217, {4-Methyl-5-[2-(3-methyl-4-morpholin-4-yl-phenylamino)-pyrimidin-4-yl]-thiazol-2-yl}-methanol] | 1260 | 7940 | – | 50.1 | 3980 |

— patent publication US20090137572A1, “2-substituted-4-heteroaryl-pyrimidines useful for the treatment of proliferative disorders” (priority 2004, published 2009)
